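These data come from cells grown in 96-well plates and exposed to compound for 48 hours at five concentrations. The concentration for 50% growth inhibition is given as GI50. TGI: concentration producing complete growth inhibition.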
Assays:
Assay in all cases: growth of human tumour cells (NCI), 48 h
[1] = system: HL-60(TB) leukemia
[2] = system: NCI-H460 lung
[3] = system: TK-10 renal
[4] = system: SK-MEL-2 melanoma
[5] = system: MOLT-4 leukemia
[6] = system: OVCAR-5 ovarian
[7] = system: NCI-H226 lung
[8] = system: MALME-3M melanoma
[9] = system: UACC-257 melanoma
[10] = system: SF-295 CNS
[11] = system: UACC-62 melanoma
[12] = system: HCC-2998 colon
[13] = system: OVCAR-3 ovarian
[14] = system: A498 renal
[15] = system: OVCAR-8 ovarian
[16] = system: PC-3 prostate
[17] = system: SNB-19 CNS
[18] = system: NCI-H522 lung
[19] = system: NCI/ADR-RES ovarian
[20] = system: SW-620 colon
[21] = system: SN12C renal
[22] = system: T-47D breast
[23] = system: NCI-H23 lung
[24] = system: HCT-116 colon
[25] = system: KM12 colon
[26] = system: A549 NSCLC
[27] = system: UO-31 renal
[28] = system: K-562 leukemia
[29] = system: CCRF-CEM leukemia
[30] = system: HCT-15 colon
[31] = system: HT29 colon
[32] = system: MDA-MB-231 breast
[33] = system: 786-0 renal
[34] = system: SR leukemia
[35] = system: EKVX NSCLC
[36] = system: M14 melanoma
[37] = system: RPMI-8226 leukemia
[38] = system: SNB-75 CNS
[39] = system: LOX IMVI melanoma
[40] = system: HS 578T breast
[41] = system: DU-145 prostate
[42] = system: MDA-MB-435
[43] = system: SK-MEL-28 melanoma
[44] = system: HOP-62 NSCLC
[45] = system: ACHN renal
[46] = system: SK-MEL-5 melanoma
[47] = system: BT-549 breast
[48] = system: U251 CNS
[49] = system: SF-539 CNS
[50] = system: SK-OV-3 ovarian
[51] = system: SF-268 CNS
[52] = system: COLO 205 colon
[53] = system: CAKI-1 renal
[54] = system: IGROV1 ovarian
[55] = system: MCF7 breast
[56] = system: OVCAR-4 ovarian
[57] = system: RXF 393 renal

SMILES: S=c1sc2c(s1)SCc1cccc(n1)CSc1sc(=S)sc1SCc1cccc(n1)CS2
- TGI [1]: > 100 µM
- TGI [2]: > 100 µM
- TGI [3]: > 100 µM
- TGI [4]: > 100 µM
- TGI [5]: > 100 µM
- TGI [6]: > 100 µM
- TGI [7]: > 100 µM
- TGI [8]: > 100 µM
- TGI [9]: > 100 µM
- TGI [10]: > 100 µM
- TGI [11]: > 100 µM
- TGI [12]: > 100 µM
- TGI [13]: > 100 µM
- TGI [14]: > 100 µM
- TGI [15]: > 100 µM
- TGI [16]: > 100 µM
- TGI [17]: > 100 µM
- TGI [18]: > 100 µM
- TGI [19]: > 100 µM
- TGI [20]: > 100 µM
- TGI [21]: > 100 µM
- TGI [22]: > 100 µM
- TGI [23]: > 100 µM
- TGI [24]: > 100 µM
- TGI [25]: > 100 µM
- TGI [26]: > 100 µM
- TGI [27]: > 100 µM
- TGI [28]: > 100 µM
- TGI [29]: > 100 µM
- TGI [30]: > 100 µM
- TGI [31]: > 100 µM
- TGI [32]: > 100 µM
- TGI [33]: > 100 µM
- TGI [34]: > 100 µM
- TGI [35]: > 100 µM
- TGI [36]: > 100 µM
- TGI [37]: > 100 µM
- TGI [38]: > 100 µM
- TGI [39]: > 100 µM
- TGI [40]: > 100 µM
- TGI [41]: > 100 µM
- TGI [42]: > 100 µM
- TGI [43]: > 100 µM
- TGI [44]: > 100 µM
- TGI [45]: > 100 µM
- TGI [46]: > 100 µM
- TGI [47]: > 100 µM
- TGI [48]: > 100 µM
- TGI [49]: > 100 µM
- TGI [50]: > 100 µM
- TGI [51]: > 100 µM
- TGI [52]: > 100 µM
- TGI [53]: > 100 µM
- TGI [54]: > 100 µM

SMILES: O=C(O)CN(CCN(CC(=O)O)CC(=O)O)CC(=O)O
- GI50 [2]: > 100 µM
- TGI [2]: > 100 µM
- GI50 [3]: > 100 µM
- TGI [3]: > 100 µM
- GI50 [4]: > 100 µM
- TGI [4]: > 100 µM
- GI50 [55]: > 100 µM
- TGI [55]: > 100 µM
- GI50 [5]: > 100 µM
- TGI [5]: > 100 µM
- GI50 [7]: > 100 µM
- TGI [7]: > 100 µM
- GI50 [56]: > 100 µM
- TGI [56]: > 100 µM
- GI50 [8]: > 100 µM
- TGI [8]: > 100 µM
- GI50 [57]: > 100 µM
- TGI [57]: > 100 µM
- GI50 [9]: > 100 µM
- TGI [9]: > 100 µM
- GI50 [10]: > 100 µM
- TGI [10]: > 100 µM
- GI50 [11]: > 100 µM
- TGI [11]: > 100 µM
- GI50 [13]: > 100 µM
- TGI [13]: > 100 µM
- GI50 [15]: > 100 µM
- TGI [15]: > 100 µM
- GI50 [16]: > 100 µM
- TGI [16]: > 100 µM
- GI50 [17]: > 100 µM
- TGI [17]: > 100 µM
- GI50 [18]: > 100 µM
- TGI [18]: > 100 µM
- GI50 [20]: > 100 µM
- TGI [20]: > 100 µM
- GI50 [22]: > 100 µM
- TGI [22]: > 100 µM
- GI50 [24]: > 100 µM
- TGI [24]: > 100 µM
- GI50 [25]: > 100 µM
- TGI [25]: > 100 µM
- GI50 [26]: > 100 µM
- TGI [26]: > 100 µM
- GI50 [27]: > 100 µM
- TGI [27]: > 100 µM
- GI50 [28]: > 100 µM
- TGI [28]: > 100 µM
- GI50 [29]: > 100 µM
- TGI [29]: > 100 µM
- GI50 [30]: > 100 µM
- TGI [30]: > 100 µM
- GI50 [31]: > 100 µM
- TGI [31]: > 100 µM
- GI50 [32]: > 100 µM
- TGI [32]: > 100 µM
- GI50 [33]: > 100 µM
- TGI [33]: > 100 µM
- GI50 [35]: > 100 µM
- TGI [35]: > 100 µM
- GI50 [36]: > 100 µM
- TGI [36]: > 100 µM
- GI50 [37]: > 100 µM
- TGI [37]: > 100 µM
- GI50 [38]: > 100 µM
- TGI [38]: > 100 µM
- GI50 [39]: > 100 µM
- TGI [39]: > 100 µM
- GI50 [40]: > 100 µM
- TGI [40]: > 100 µM
- GI50 [41]: > 100 µM
- TGI [41]: > 100 µM
- GI50 [42]: > 100 µM
- TGI [42]: > 100 µM
- GI50 [43]: > 100 µM
- TGI [43]: > 100 µM
- GI50 [44]: > 100 µM
- TGI [44]: > 100 µM
- GI50 [45]: > 100 µM
- TGI [45]: > 100 µM
- GI50 [46]: > 100 µM
- TGI [46]: > 100 µM
- GI50 [47]: > 100 µM
- TGI [47]: > 100 µM
- GI50 [48]: > 100 µM
- TGI [48]: > 100 µM
- GI50 [49]: > 100 µM
- TGI [49]: > 100 µM
- GI50 [50]: > 100 µM
- TGI [50]: > 100 µM
- GI50 [51]: > 100 µM
- TGI [51]: > 100 µM
- GI50 [52]: > 100 µM
- TGI [52]: > 100 µM
- GI50 [53]: > 100 µM
- TGI [53]: > 100 µM
- GI50 [54]: > 100 µM
- TGI [54]: > 100 µM

From PubChem BioAssay (NCI)
